Assay results reported in patent US20130071931A1, “PROCESS FOR HEPATIC DIFFERENTIATION FROM INDUCED HEPATIC STEM CELLS, AND INDUCED HEPATIC PROGENITOR CELLS DIFFERENTIATED THEREBY” (NATIONAL CANCER CENTER, priority 2011, published 2013).
Where a name gives a salt, the structure may show the parent alone.

Columns and labels:
[1] = test system: human induced hepatic stem cells AFB1-1; experiment: Quantitative RT-PCR of marker genes, hepatic differentiation on Matrigel (Examples 2-4); type: cell-based; settings: cell sample No. 391: aFGF 10 ng/mL/ReproStem (bFGF-free), no feeder cells, 13 days, No. 377 taken as 1
[2] = test system: human induced hepatic stem cells AFB1-1; experiment: AFP in culture supernatant, hepatic differentiation on Matrigel (Examples 2-4); settings: cell sample No. 391: aFGF 10 ng/mL/ReproStem (bFGF-free), no feeder cells, 13 days after seeding
[3] = test system: human induced hepatic stem cells AFB1-1; experiment: Quantitative RT-PCR, differentiation with TGF-β signaling inhibitors (Example 12); type: cell-based; settings: cell samples Nos. 1545-1549: 0.5 μM inhibitor in ReproStem (bFGF-free), no feeder cells, Matrigel, 13 days after seeding; for KRT7 expression ratio: No. 1543 taken as 1; for GAPDH expression Ct value: housekeeping gene
Procedure: The resultant cell samples are respectively referred to as “Nos. 1545-1549”. No. 1544 was cultured in the absence of any inhibitor. Nos. 1545-1549 were cultured in the presence of the following inhibitors, respectively.
Thirteen days after the seeding, the cells were lysed in 1 mL/well of a QIAzol reagent to prepare the total RNA from the cell lysate using the miRNeasy Mini Kit (Qiagen). The total RNA was subjected to quantitative RT-PCR using the iScript Advanced cDNA synthesis kit, the SsoAdvanced SYBR Green Supremix ([…]), and the CFX96 Real-Time System C1000 Thermal Cycler, all manufactured by Bio-Rad. The quantified genes were ALB, AAT, TTR, AFP, cytokeratin 7 (KRT7), cytokeratin 19 (KRT19), and DLK1 (Delta-like 1 homolog).

[4] = test system: human induced hepatic stem cells NGC1-1; experiment: Quantitative RT-PCR, differentiation with TGF-β signaling inhibitors (Example 11); type: cell-based; settings: cell samples Nos. 1141-1145: 0.5 μM inhibitor in ReproStem + 10 ng/mL aFGF, no feeder cells, Matrigel, 7 days after seeding; No. 1133 taken as 1
Procedure: The resultant cell samples are respectively referred to as “Nos. 1141-1145”. No. 1140 was cultured in the absence of any inhibitor. Nos. 1141-1145 were cultured in the presence of the following inhibitors, respectively. No. 1141: […] Cat. No. 2939) No. 1142: […] MERCK Calbiochem; Cat. […] MERCK Calbiochem; Cat. […] Cayman; Cat. No. 13031) No. 1145: […] Cayman; Cat. No. 13341). […] Seven days after the seeding, the cells were lysed in 1 mL/well of a QIAzol reagent to prepare the total RNA from the cell lysate using the miRNeasy Mini Kit (Qiagen). The total RNA was subjected to quantitative RT-PCR using the iScript Advanced cDNA synthesis kit, the SsoAdvanced SYBR Green Supremix ([…]), and the CFX96 Real-Time System C1000 Thermal Cycler, all manufactured by Bio-Rad.

| Compound | AAT expression Ct value [3] | AFP expression Ct value [3] | ALB expression Ct value [3] | DLK1 expression Ct value [3] | KRT7 expression Ct value [3] | KRT19 expression Ct value [3] | TTR expression Ct value [3] | KRT7 expression ratio [3] | GAPDH expression Ct value [3] | AAT expression ratio [4] | AFP expression ratio [4] | ALB expression ratio [4] | TTR expression ratio [4] | further results |
| --- | --- | --- | --- | --- | --- | --- | --- | --- | --- | --- | --- | --- | --- | --- |
| aFGF: aFGF, 10 ng/mL supplement of bFGF-free ReproStem medium (cell sample No. 391) |  |  |  |  |  |  |  |  |  |  |  |  |  | AAT expression level [1]: 220; AFP expression level [1]: 3,420; ALB expression level [1]: 3,172; DLK1 expression level [1]: 786; TTR expression level [1]: 3,910; α-fetoprotein (AFP) in culture supernatant [2]: 3,300 ng/mL |
| Fc1ccc(Cl)cc1-c1nc(Nc2ccncc2)c2nccnc2n1 [compound 616456] | 23.54 | 17.48 | 21.35 | 19.1 | 20.05 | 20.45 | 17.4 | 3186 | 13.72 |  |  |  |  |  |
| Cc1cccc(-c2n[nH]cc2-c2ccc3ncccc3n2)n1 [compound 616452, 2-(3-(6-methylpyridin-2-yl)-1H-pyrazol-4-yl)-1,5-naphthyridine] |  |  |  |  |  |  |  |  |  | 22.18 | 720.03 | 296.67 | 1,262.14 |  |
| Cc1cccc(-c2[nH]c(C(C)(C)C)nc2-c2ccc3nccnc3c2)n1 [compound 616459, 6-(2-tert-butyl-5-(6-methyl-pyridin-2-yl)-1H-imidazol-4-yl)-quinoxaline] | 23.54 | 19.25 | 24.67 | 18.66 | 19.89 | 20.36 | 17.24 | 4905 | 14.24 |  |  |  |  |  |
| Cc1cccc(-c2[nH]c(C(C)(C)C)nc2-c2ccc3c(c2)OCO3)n1.Cl [SB-505124, 2-(5-benzo[1,3]dioxol-5-yl-2-tert-butyl-3H-imidazol-4-yl)-6-methylpyridine hydrochloride hydrate] | 23.56 | 18.61 | 23.2 | 18.77 | 19.8 | 20.33 | 17.24 | 2768 | 13.25 |  |  |  |  |  |
| Cc1cccc(-c2n[nH]cc2-c2ccc3ncccc3n2)n1 [compound 616451, 3-(pyridin-2-yl)-4-(4-quinonyl)-1H-pyrazole] |  |  |  |  |  |  |  |  |  | 13.45 | 747.65 | 163.71 | 966.14 |  |
| Cc1cccc(-c2nc(C(C)(C)C)[nH]c2-c2ccc3c(c2)OCO3)n1 [compound 616453, HCl] | 24.09 | 20.24 | 25.55 | 18.74 | 19.45 | 20.29 | 18.13 | 4761 | 13.76 |  |  |  |  |  |
| c1ccc(-c2n[nH]cc2-c2ccnc3ccccc23)nc1 [LY-364947, 4-[3-(2-pyridinyl)-1H-pyrazol-4-yl]-quinoline] |  |  |  |  |  |  |  |  |  | 14.36 | 369.23 | 114.78 | 482.45 |  |
| NC(=O)c1ccc(-c2nc(-c3ccc4c(c3)OCO4)c(-c3ccccn3)[nH]2)cc1 [SB431542, 4-[4-(1,3-benzodioxol-5-yl)-5-pyridin-2-yl-1H-imidazol-2-yl]benzamide] |  |  |  |  |  |  |  |  |  | 12.15 | 394.40 | 94.46 | 614.17 |  |
